Test results reported in patent EP4737445A1, “NOVEL SATURATED HETEROCYCLE-SUBSTITUTED HETEROARYL-CARBONOHYDRAZONOYL DICYANIDE COMPOUND AND USE THEREOF” (Korea Institute of Science and Technology, priority 2023, dated 2025).

How the values were obtained:
Assay type in all cases: in vivo
tau [1] = biological target: T1, tau (Homo sapiens, UniProt P10636, P618L); experiment: Tau-BiFC fluorescence imaging of brain tissue (tau oligomer/aggregate formation); details: TauP301L-BiFC mice; oral 10 mg/kg, 19 weeks; vehicle = 100%
T1 construct: BiFC fluorescent-protein fragments (two complementary halves); from tissue; host or cells: brain of TauP301L-BiFC transgenic mice
T1 sequence (P10636 1-441 isoform P10636-8 P301L): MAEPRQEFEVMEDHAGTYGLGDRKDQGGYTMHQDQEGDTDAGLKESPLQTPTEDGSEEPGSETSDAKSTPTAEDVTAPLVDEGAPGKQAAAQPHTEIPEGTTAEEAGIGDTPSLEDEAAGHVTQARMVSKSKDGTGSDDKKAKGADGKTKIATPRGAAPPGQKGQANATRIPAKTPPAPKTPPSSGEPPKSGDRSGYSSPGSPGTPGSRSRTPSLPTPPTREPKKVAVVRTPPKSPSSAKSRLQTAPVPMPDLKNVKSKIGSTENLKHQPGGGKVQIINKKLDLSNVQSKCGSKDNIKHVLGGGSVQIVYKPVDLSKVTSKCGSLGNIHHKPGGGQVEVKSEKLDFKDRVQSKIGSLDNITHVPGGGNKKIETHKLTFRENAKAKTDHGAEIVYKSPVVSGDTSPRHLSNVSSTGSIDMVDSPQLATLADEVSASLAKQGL
Protocol: After oral administration of Compounds 6, 16, and 20 and completion of behavioral experiments, 13.2-month-old TauP301L-BiFC mice were sacrificed to proceed with brain tissue extraction and [2] brain lysate separation and purification. • [1] First, brain tissue extraction, BiFC fluorescence imaging of brain tissue, and tau phosphorylation antibody immunofluorescence were performed through the following process. TauP301L-BiFC mice were perfused with 0.9% saline and fixed with PBS (pH 7.4) solution containing 4% paraformaldehyde. The brain was extracted and fixed in PBS containing 4% paraformaldehyde at 4°C for 48 to 72 hours. For cryoprotection, the brain was transferred to PBS containing 30% sucrose solution and stored at 4°C until it sank. For frozen sectioning, the brain was immersed in O.C.T (Tissue-TEK) and frozen, and then continuously cut using a brain tissue sectioner. Tissue sections with a thickness of 30 µm were stored in PBS containing 0.05% sodium azide at 4°C.
Brain tissue sections (n=10 per group) were placed on slides, stained with Sudan Black B solution (70% ethanol containing 0.05% Sudan Black B) for 10 minutes to reduce autofluorescence, washed 3 times with PBS containing 0.1% Triton X-100, and then washed with distilled water. For nuclear staining, brain tissue sections were stained with Hoechst (0.5 µg/mL) for 30 minutes. BiFC fluorescence (λex=460-490 nm and λem=500-550 nm) images were acquired using Axio Scan.Z1 (ZEISS). For quantitative analysis, the average BiFC-fluorescence intensity was measured in the somatosensory cortex (layer V) and hippocampus CA1, and the habenular region was used as a control region to reduce background fluorescence differences between brain samples. ImageJ software (NIH) was used to mark regions of interest and calculate fluorescence intensity values, and the data were expressed as the average fluorescence intensity and standard deviation of brain tissue images from 10 mice per group.
As a result of Tau-BiFC fluorescence imaging of four regions of total brain tissue (hippocampus (CA1), somatosensory cortex, cerebellum, brainstem), the degree of Tau-BiFC fluorescence appearing as tau aggregation early oligomer formation and aggregate formation was as follows: • (1) Hippocampus (CA1), vehicle = 100%, #20= 79%, p<0.05, #6= 80%, p<0.05, #16= 72%, p<0.001. • (2) Sensory cortex (SCTX), vehicle = 100%, #20= 72%, p<0.05, #6= 73%, p<0.05, #16= 66%, p<0.01. • (3) Cerebellum (CB), vehicle = 100%, #20= 64%, p<0.05, #6= 68%, ns, #16= 76%, n.s. • (4) Brain stem, vehicle = 100%, #20= 60%, p<0.05, #6= 62%, p<0.05, #16= 60%, p<0.05.

tau [2] = biological target: T1, tau; experiment: Total tau immunoblot of RIPA-insoluble brain lysates; details: TauP301L-BiFC mice, compared to vehicle, numbers not readable (formula image)
Protocol: (§1) [2] To verify the tau pathology inhibitory efficacy of the drug confirmed through brain tissue imaging via brain lysate immunoblot, brain lysates were separated and purified, and immunoblot using tau antibody was performed in soluble and insoluble fractions. The brain was weighed, and RIPA lysis buffer containing the corresponding dose of protease and phosphatase inhibitors was added to the brain tissue. The tissue was then disrupted using a homogenizer and incubated at 4°C for 2 hours, and then centrifuged at 13,200 rpm at 4°C for 20 minutes. After centrifugation, the supernatant was collected as a RIPA-soluble fraction and stored at -80°C. To prepare the RIPA-insoluble fraction, the remaining pellet was washed once with RIPA lysis buffer containing 1 M sucrose, and then 2% SDS solution (1 mL per 1 g of tissue) was added and incubated at room temperature for 1 hour. Thereafter, the mixture was centrifuged at 13,200 rpm for 1 minute at room temperature, and the supernatant was collected as a RIPA-insoluble fraction and stored at -80°C.
(§2) For tau immunoblot analysis, 20 µg of brain tissue RIPA-soluble sample was separated on a 10% SDS-PAGE gel and transferred to a PVDF membrane, and RIPA-insoluble samples were diluted 10-fold in 2% SDS solution and 20 µL of each sample was loaded on an SDS-PAGE gel. The total tau and phosphorylated tau levels were detected by Tau5, which is an anti-tau antibody, and pS199 and pS396, which are anti-phosphorylated tau antibodies. ImageJ software (NIH) was used to quantify band intensity.
The results of total tau immunoblot using RIPA-insoluble brain lysates were as follows: [formula]

tau [3] = biological target: T1, tau; experiment: Tau phosphorylation immunoblot of RIPA-soluble brain lysates; details: TauP301L-BiFC mice, oral 10 mg/kg, 19 weeks, vehicle = 100%
Protocol: as §1, §2

[4] = Pharmacokinetic study in rats (IV and PO, plasma); details: Sprague-Dawley, rat, SD rats
Protocol: The pharmacokinetics of the compounds prepared according to Examples 1 to 46 were studied using experimental animal models. Specifically, 7- to 8-week-old SD rats (Koatech, Hana Sangsa Co., Ltd.) weighing approximately 250 to 300 g were purchased and maintained in a small animal simple breeding room set at a temperature of 22 ± 2°C, relative humidity of 50 ± 5%, lighting time of 12 hours (lights on at 8 AM and lights off at 8 PM), and illumination of 150 to 300 lux. Throughout the entire test period, feed was provided ad libitum, RO water was provided ad libitum, and fasting was performed for 16 hours before oral administration of the drug. After preparing the drugs under the conditions shown in Table 7 below, the drugs were administered by intravenous injection (IV) or oral administration (PO). Collected blood at 500 µL was collected in tubes containing heparin sodium and centrifuged at 8000 rpm at 2 to 8°C for 6 minutes to obtain plasma from the blood. 20 µL of the obtained plasma was taken, added to 180 µL of acetonitrile containing an internal standard, vortexed, and centrifuged at 15,000 rpm at 4°C for 5 minutes, and the obtained supernatant was analyzed by LC-MS/MS. The HPLC and MS conditions used for analysis are shown in Tables 8 and 9 below, respectively.
Specific PK parameters were calculated using Phoenix WinNonlin 6.4 version (Pharsight, USA) program and a non-compartmental analysis model, and the results are summarized in Table 11 below.

| SMILES | Tau-BiFC fluorescence, Brain stem (tau [1]) [%] | Tau-BiFC fluorescence, Cerebellum (CB) (tau [1]) [%] | Tau-BiFC fluorescence, Hippocampus (CA1) (tau [1]) [%] | Tau-BiFC fluorescence, Sensory cortex (SCTX) (tau [1]) [%] | total tau immunoblot, insoluble tau aggregate formation (tau [2]) | pS199 tau phosphorylation immunoblot (tau [3]) [%] | pS396 tau phosphorylation immunoblot (tau [3]) [%] | bioavailability ([4]; IV 2 mg/kg, PO 10 mg/kg) [%] | AUC ([4]; IV, 2 mg/kg) [ng·h/mL] | Cmax ([4]; IV, 2 mg/kg) [ng/mL] | clearance ([4]; IV, 2 mg/kg) [mL/min/kg] | half-life ([4]; IV, 2 mg/kg) [min] | AUC ([4]; PO, 10 mg/kg) [ng·h/mL] | Cmax ([4]; PO, 10 mg/kg) [ng/mL] | Tmax ([4]; PO, 10 mg/kg) [min] | half-life ([4]; PO, 10 mg/kg) [min] | further results |
| --- | --- | --- | --- | --- | --- | --- | --- | --- | --- | --- | --- | --- | --- | --- | --- | --- | --- |
| CC1COCCN1c1nc2ccc(NN=C(C#N)C#N)cc2o1 (centres unmarked) [Compound 16, (2-(3-methylmorpholino)benzo[d]oxazol-6-yl)carbonohydrazonoyl dicyanide] | 60 | 76 | 72 | 66 | inhibition of insoluble tau aggregate formation | 24 | 40 | 114 | 4090 | 4090 | 8.33 | 30.6 | 23300 | 11100 | 40.2 | 112 | – |
| N#CC(C#N)=NNc1ccc2nc(N3C4CCC3COC4)oc2c1 [Compound 20, (2-(3-oxa-8-azabicyclo[3.2.1]octan-8-yl)benzo[d]oxazol-6-yl)carbonohydrazonoyl dicyanide] | 60 | 64 | 79 | 72 | inhibition of insoluble tau aggregate formation | 60 | 71 | – | – | – | – | – | – | – | – | – | bioavailability ([4]; IV 1 mg/kg, PO 15 mg/kg): 114%; AUC ([4]; IV, 1 mg/kg): 130 ng·h/mL; clearance ([4]; IV, 1 mg/kg): 132 mL/min/kg; half-life ([4]; IV, 1 mg/kg): 12 min; AUC ([4]; PO, 15 mg/kg): 2210 ng·h/mL; Cmax ([4]; PO, 15 mg/kg): 2050 ng/mL; Tmax ([4]; PO, 15 mg/kg): 24 min; half-life ([4]; PO, 15 mg/kg): 96 min |
| Cn1c(N2CCOCC2)nc2cc(NN=C(C#N)C#N)ccc21 [Compound 6, (1-methyl-2-morpholino-1H-benzo[d]imidazol-5-yl)carbonohydrazonoyl dicyanide] | 62 | 68 | 80 | 73 | inhibition of insoluble tau aggregate formation | 48 | 60 | 42 | 1700 | 9870 | 19.5 | 34.8 | 3570 | 4880 | 15 | 53.4 | – |
